Test results: patent US9006450B2 (Boehringer Ingelheim International GmbH, priority 2010, dated 2015)

target: T1, human ACC2 (Homo sapiens, UniProt O00763); assay: ACC2 assay, spectrophotometric 384 well assay (NADH-linked, coupled lactate dehydrogenase/pyruvate kinase); format: biochemical; conditions: ACC2 assay, hACC2 construct lacking 128 N-terminal amino acids, 25° C., 340 nm; read-out: IC50
T1 construct: made in house; host or cells: insect cells (baculoviral expression system)
Method in brief: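 ADP output tracked via pyruvate kinase/lactate dehydrogenase NADH oxidation, slope at 340 nm over 15 min, 25° C, with 500 μM ATP and 200 μM each acetyl-CoA and NADH. Enzyme: insect-cell-expressed human ACC2, N-terminal 128 residues deleted; pH 7.5 Tris with citrate, KHCO3. IC50 from four-parameter regression versus vehicle and no-acetyl-CoA controls.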

T1 sequence (O00763 129-2458 limits assumed): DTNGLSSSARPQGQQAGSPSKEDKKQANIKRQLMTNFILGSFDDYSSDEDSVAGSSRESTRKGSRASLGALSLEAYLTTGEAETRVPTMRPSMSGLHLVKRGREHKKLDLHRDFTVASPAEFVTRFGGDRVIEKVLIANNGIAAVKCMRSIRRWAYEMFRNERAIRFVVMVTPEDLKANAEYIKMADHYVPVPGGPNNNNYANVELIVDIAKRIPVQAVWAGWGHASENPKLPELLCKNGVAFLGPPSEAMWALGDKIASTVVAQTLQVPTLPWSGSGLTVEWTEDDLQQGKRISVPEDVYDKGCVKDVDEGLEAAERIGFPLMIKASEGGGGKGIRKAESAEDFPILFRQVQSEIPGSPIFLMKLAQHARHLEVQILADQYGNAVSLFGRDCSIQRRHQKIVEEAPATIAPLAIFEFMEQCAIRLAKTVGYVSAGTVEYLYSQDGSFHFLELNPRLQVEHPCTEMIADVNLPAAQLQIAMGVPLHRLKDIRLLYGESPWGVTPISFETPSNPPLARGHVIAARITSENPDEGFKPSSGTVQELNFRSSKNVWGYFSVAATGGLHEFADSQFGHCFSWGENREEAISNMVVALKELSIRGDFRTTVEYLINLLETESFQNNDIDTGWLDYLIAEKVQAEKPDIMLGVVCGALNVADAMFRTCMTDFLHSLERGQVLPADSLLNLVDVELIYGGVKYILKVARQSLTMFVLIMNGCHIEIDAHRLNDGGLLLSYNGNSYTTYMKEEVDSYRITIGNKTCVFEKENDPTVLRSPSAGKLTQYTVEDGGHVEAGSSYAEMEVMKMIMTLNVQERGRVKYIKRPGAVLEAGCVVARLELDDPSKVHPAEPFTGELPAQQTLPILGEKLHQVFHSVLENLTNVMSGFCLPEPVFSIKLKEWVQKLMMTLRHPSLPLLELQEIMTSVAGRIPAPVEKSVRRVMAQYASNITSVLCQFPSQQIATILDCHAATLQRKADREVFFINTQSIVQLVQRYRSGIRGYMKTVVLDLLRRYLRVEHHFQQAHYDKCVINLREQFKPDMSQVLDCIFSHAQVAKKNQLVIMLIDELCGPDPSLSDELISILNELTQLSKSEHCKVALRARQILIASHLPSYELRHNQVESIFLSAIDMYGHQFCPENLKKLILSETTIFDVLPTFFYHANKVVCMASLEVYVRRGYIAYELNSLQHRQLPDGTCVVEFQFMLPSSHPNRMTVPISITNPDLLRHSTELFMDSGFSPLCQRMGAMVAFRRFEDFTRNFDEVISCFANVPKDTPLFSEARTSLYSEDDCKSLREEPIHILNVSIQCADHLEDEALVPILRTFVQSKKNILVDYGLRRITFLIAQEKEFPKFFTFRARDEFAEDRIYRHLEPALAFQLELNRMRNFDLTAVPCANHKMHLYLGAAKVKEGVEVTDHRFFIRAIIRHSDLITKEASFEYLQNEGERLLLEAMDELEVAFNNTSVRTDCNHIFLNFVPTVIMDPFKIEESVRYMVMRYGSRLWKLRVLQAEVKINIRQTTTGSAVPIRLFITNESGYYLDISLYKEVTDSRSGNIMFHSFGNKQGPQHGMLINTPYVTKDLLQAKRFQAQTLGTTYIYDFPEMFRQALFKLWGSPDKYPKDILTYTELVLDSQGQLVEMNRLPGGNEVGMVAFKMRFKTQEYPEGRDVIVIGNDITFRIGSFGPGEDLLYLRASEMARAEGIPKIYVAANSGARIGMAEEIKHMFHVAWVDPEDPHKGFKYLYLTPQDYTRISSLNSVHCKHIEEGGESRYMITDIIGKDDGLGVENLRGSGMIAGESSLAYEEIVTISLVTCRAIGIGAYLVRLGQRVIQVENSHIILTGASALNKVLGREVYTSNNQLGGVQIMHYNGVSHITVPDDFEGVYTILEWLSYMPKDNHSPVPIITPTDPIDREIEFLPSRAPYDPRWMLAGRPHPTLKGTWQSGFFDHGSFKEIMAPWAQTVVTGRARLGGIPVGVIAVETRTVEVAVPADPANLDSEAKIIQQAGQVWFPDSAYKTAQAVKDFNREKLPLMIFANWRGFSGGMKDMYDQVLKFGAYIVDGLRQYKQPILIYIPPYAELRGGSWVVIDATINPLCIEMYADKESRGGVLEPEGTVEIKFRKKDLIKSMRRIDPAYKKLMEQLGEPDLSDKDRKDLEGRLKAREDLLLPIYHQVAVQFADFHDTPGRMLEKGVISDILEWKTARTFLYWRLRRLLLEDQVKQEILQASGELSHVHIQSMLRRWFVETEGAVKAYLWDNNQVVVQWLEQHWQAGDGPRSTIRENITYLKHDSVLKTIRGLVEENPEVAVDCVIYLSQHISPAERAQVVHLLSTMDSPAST

Structure (SMILES) | IC50 [µM]
CC(=O)N[C@@H](C)c1ccc(C2CCN(c3ncc(C(=O)N4[C@@H]5CC[C@H]4C[C@@H](O)C5)cn3)CC2)cc1 [Example 18.36] | 13.2
CC(=O)N[C@@H](C)c1ccc(C2CCN(c3ncc(C(=O)N4CCc5cnccc54)cn3)CC2)cc1 [Example 18.40] | 6.6
CC(=O)N[C@@H](C)c1ccc(C2CCN(c3ncc(C(=O)NCC4CCCCO4)cn3)CC2)cc1 (stereo partly drawn) [Example 18.41] | 21.4
CC(=O)N[C@@H](C)c1ccc(C2CCN(c3ncc(C(=O)N(C)CC#N)cn3)CC2)cc1 [Example 18.42] | 14
CC(=O)N[C@@H](C)c1ccc(C2CCN(c3ncc(C(=O)N(C)CCN(C)C)cn3)CC2)cc1 [Example 18.43] | 16.8
CCN1CCCC1CNC(=O)c1cnc(N2CCC(c3ccc([C@H](C)NC(C)=O)cc3)CC2)nc1 (stereo partly drawn) [Example 18.44] | 18.3
CC(=O)N[C@@H](C)c1ccc(C2CCN(c3ncc(C(=O)N4Cc5ccncc5C4)cn3)CC2)cc1 [Example 18.46] | 6
CC(=O)N[C@@H](C)c1ccc(C2CCN(c3ncc(C(=O)NCCN4CCCC4)cn3)CC2)cc1 [Example 18.51] | 13.8
CC(=O)N[C@@H](C)c1ccc(C2CCN(c3ncc(C(=O)N4CCN(C)CC4)cn3)CC2)cc1 [Example 18.52] | 13.6
CC(=O)N[C@@H](C)c1ccc(C2CCN(c3ncc(C(=O)N4CCN(C(C)=O)CC4)cn3)CC2)cc1 [Example 18.53] | 15.1
CC(=O)N[C@@H](C)c1ccc(C2CCN(c3ncc(C(=O)N4CCCC4)cn3)CC2)cc1 [Example 18.54] | 2.1
CC(=O)N[C@@H](C)c1ccc(C2CCN(c3ncc(C(=O)NCCC4CCCN4C)cn3)CC2)cc1 (stereo partly drawn) [Example 18.56] | 14.9
CC(=O)N[C@@H](C)c1ccc(C2CCN(c3ncc(C(=O)NCC4CCCO4)cn3)CC2)cc1 (stereo partly drawn) [Example 18.57] | 22.4
CC(=O)N[C@@H](C)c1ccc(C2CCN(c3ncc(C(=O)NCCN4CCCCC4)cn3)CC2)cc1 [Example 18.59] | 18.5
CC(=O)N[C@@H](C)c1ccc(C2CCN(c3ncc(C(=O)NCC4CCNCC4)cn3)CC2)cc1 [Example 18.60] | 15.5
CC(=O)N[C@@H](C)c1ccc(C2CCN(c3ncc(C(=O)N4CCC(C(N)=O)CC4)cn3)CC2)cc1 [Example 18.61] | 18.9
CC(=O)N[C@@H](C)c1ccc(C2CCN(c3ncc(C(=O)NCC4CCCCN4)cn3)CC2)cc1 (stereo partly drawn) [Example 18.65] | 10.2
CC(=O)N[C@@H](C)c1ccc(C2CCN(c3ncc(C(=O)NCCC(=O)N(C)C)cn3)CC2)cc1 [Example 18.66] | 15.8
CC(=O)N[C@@H](C)c1ccc(C2CCN(c3ncc(C(=O)N(C)CC4(C)COC4)cn3)CC2)cc1 [Example 18.68] | 19

Structure (SMILES) | IC50 [µM]
CC(=O)N[C@@H](C)c1ccc(C2CCN(c3ncc(C(=O)N(C)C4CCS(=O)(=O)C4)cn3)CC2)cc1 (stereo partly drawn) [Example 18.69] | 20.8
CC(=O)N[C@@H](C)c1ccc(C2CCN(c3ncc(C(=O)N4CCC(C#N)CC4)cn3)CC2)cc1 [Example 18.71] | 14.8
CC(=O)N[C@@H](C)c1ccc(C2CCN(c3ncc(C(=O)NC4CCNCC4)cn3)CC2)cc1 [Example 18.79] | 16.7
CC(=O)N[C@@H](C)c1ccc(C2CCN(c3ncc(C(=O)NCC4OCCO4)cn3)CC2)cc1 [Example 18.83] | 8.7
CC(=O)N[C@@H](C)c1ccc(C2CCN(c3ncc(C(=O)N(C)C4CCN(C)C4)cn3)CC2)cc1 (stereo partly drawn) [Example 18.84] | 18.1
CC(=O)N[C@@H](C)c1ccc(C2CCN(c3ncc(C(=O)N4CCCC4CN(C)C)cn3)CC2)cc1 (stereo partly drawn) [Example 18.88] | 16.6
CC(=O)N[C@@H](C)c1ccc(C2CCN(c3ncc(C(=O)N4CCOCC4)cn3)CC2)cc1 [Example 18.94] | 2.2
CC(=O)N[C@@H](C)c1ccc(C2CCN(c3ccnc(OCC(C)C)c3)CC2)cc1 [Example 19.1, (S)—N-{1-[4-(2′-Isobutoxy-3,4,5,6-tetrahydro-2H-[1,4′]bipyridinyl-4-yl)-phenyl]-ethyl}-acetamide] | 0.11
CC(=O)N[C@@H](C)c1ccc(C2CCN(c3ccnc(OC4CCC4)c3)CC2)cc1 [Example 19.2] | 0.04
COCCOc1cc(N2CCC(c3ccc([C@H](C)NC(C)=O)cc3)CC2)ccn1 [Example 19.3] | 0.7
CC(=O)N[C@@H](C)c1ccc(C2CCN(c3ccnc(OC4CCCC4)c3)CC2)cc1 [Example 19.4] | 0.07
CC(=O)N[C@@H](C)c1ccc(C2CCN(c3ccnc(OCC(C)(C)C)c3)CC2)cc1 [Example 19.5] | 0.08
CC(=O)N[C@@H](C)c1ccc(C2CCN(c3ccnc(OC4CCCCC4)c3)CC2)cc1 [Example 19.6] | 0.08
CC(=O)N[C@@H](C)c1ccc(C2CCN(c3ccnc(OC(C)c4ccccc4)c3)CC2)cc1 (stereo partly drawn) [Example 19.7] | 0.59
COc1cccc(COc2cc(N3CCC(c4ccc([C@H](C)NC(C)=O)cc4)CC3)ccn2)c1 [Example 19.8] | 1.5
CC(=O)N[C@@H](C)c1ccc(C2CCN(c3ccnc(OCCc4ccccc4)c3)CC2)cc1 [Example 19.9] | 1.3
CC(=O)N[C@@H](C)c1ccc(C2CCN(c3ccnc(OCC4CC4)c3)CC2)cc1 [Example 19.10] | 0.1
CC(=O)N[C@@H](C)c1ccc(C2CCN(c3ccnc(OCC4CCC4)c3)CC2)cc1 [Example 19.11] | 0.14
CC(=O)N[C@@H](C)c1ccc(C2CCN(c3ccnc(OCCC4CC4)c3)CC2)cc1 [Example 19.12] | 0.18

The remaining lines, values ahead:

IC50 [µM] | Structure (SMILES)
6.4 | CC(=O)N[C@@H](C)c1ccc(C2CCN(c3ncc(C(=O)N(C)Cc4ccccn4)cn3)CC2)cc1 [Example 18.37]
3.1 | CC(=O)N[C@@H](C)c1ccc(C2CCN(c3ncc(C(=O)N4Cc5cccnc5C4)cn3)CC2)cc1 [Example 18.38]
15.2 | CC(=O)N[C@@H](C)c1ccc(C2CCN(c3ncc(C(=O)NC4COC4)cn3)CC2)cc1 [Example 18.39]
17.2 | CC(=O)N[C@@H](C)c1ccc(C2CCN(c3ncc(C(=O)NCC(N)=O)cn3)CC2)cc1 [Example 18.45]
29.1 | CC(=O)N[C@@H](C)c1ccc(C2CCN(c3ncc(C(=O)NCCCO)cn3)CC2)cc1 [Example 18.47]
3.6 | CC(=O)N[C@@H](C)c1ccc(C2CCN(c3ncc(C(=O)NC(C)C)cn3)CC2)cc1 [Example 18.48]
13.3 | CC(=O)N[C@@H](C)c1ccc(C2CCN(c3ncc(C(=O)NC[C@H](O)CO)cn3)CC2)cc1 [Example 18.50]
8.8 | COCCNC(=O)c1cnc(N2CCC(c3ccc([C@H](C)NC(C)=O)cc3)CC2)nc1 [Example 18.55]
18.1 | CNCCNC(=O)c1cnc(N2CCC(c3ccc([C@H](C)NC(C)=O)cc3)CC2)nc1 [Example 18.58]
11.8 | CC(=O)N[C@@H](C)c1ccc(C2CCN(c3ncc(C(=O)NCC4CCN(Cc5ccccc5)C4)cn3)CC2)cc1 (stereo partly drawn) [Example 18.62]
23.1 | CC(=O)N[C@@H](C)c1ccc(C2CCN(c3ncc(C(=O)NCC(O)C(F)(F)F)cn3)CC2)cc1 (stereo partly drawn) [Example 18.63]
25.4 | CC(=O)N[C@@H](C)c1ccc(C2CCN(c3ncc(C(=O)NCCS(C)(=O)=O)cn3)CC2)cc1 [Example 18.64]
23.7 | CC(=O)N[C@@H](C)c1ccc(C2CCN(c3ncc(C(=O)NCC4CCN(c5ccccc5)C4)cn3)CC2)cc1 (stereo partly drawn) [Example 18.67]
17.4 | CC(=O)N[C@@H](C)c1ccc(C2CCN(c3ncc(C(=O)NC4(C#N)CC4)cn3)CC2)cc1 [Example 18.70]
8.9 | CNC(=O)CNC(=O)c1cnc(N2CCC(c3ccc([C@H](C)NC(C)=O)cc3)CC2)nc1 [Example 18.72]
17.9 | CC(=O)N[C@@H](C)c1ccc(C2CCN(c3ncc(C(=O)NCCn4ccnc4)cn3)CC2)cc1 [Example 18.73]

IC50 [µM] | Structure (SMILES)
24.5 | CC(=O)N[C@@H](C)c1ccc(C2CCN(c3ncc(C(=O)N[C@H]4C[C@H](N)C4)cn3)CC2)cc1 [Example 18.74]
17.8 | CC(=O)N[C@@H](C)c1ccc(C2CCN(c3ncc(C(=O)NCCC(C)O)cn3)CC2)cc1 (stereo partly drawn) [Example 18.75]
4 | CC(=O)N[C@@H](C)c1ccc(C2CCN(c3ncc(C(=O)N4CCC4)cn3)CC2)cc1 [Example 18.76]
1.7 | CC(=O)N[C@@H](C)c1ccc(C2CCN(c3ncc(C(=O)NCC4CC4)cn3)CC2)cc1 [Example 18.77]
12.7 | CC(=O)N[C@@H](C)c1ccc(C2CCN(c3ncc(C(=O)Nc4cc(C)on4)cn3)CC2)cc1 [Example 18.78]
27.2 | CC(=O)N[C@@H](C)c1ccc(C2CCN(c3ncc(C(=O)NCCC#N)cn3)CC2)cc1 [Example 18.80]
16.5 | CC(=O)N[C@@H](C)c1ccc(C2CCN(c3ncc(C(=O)NC4CCN(C)C4)cn3)CC2)cc1 (stereo partly drawn) [Example 18.81]
6.2 | CC(=O)N[C@@H](C)c1ccc(C2CCN(c3ncc(C(=O)NCCC(N)=O)cn3)CC2)cc1 [Example 18.82]
11.3 | CC(=O)N[C@@H](C)c1ccc(C2CCN(c3ncc(C(=O)Nc4ccc(CN(C)C)cc4)cn3)CC2)cc1 [Example 18.86]
1.2 | CC(=O)N[C@@H](C)c1ccc(C2CCN(c3ncc(C(=O)N(C)c4ccccc4)cn3)CC2)cc1 [Example 18.89]
1.2 | CCNC(=O)c1cnc(N2CCC(c3ccc([C@H](C)NC(C)=O)cc3)CC2)nc1 [Example 18.90]
0.91 | CCN(CC)C(=O)c1cnc(N2CCC(c3ccc([C@H](C)NC(C)=O)cc3)CC2)nc1 [Example 18.91]
2.2 | CC(=O)N[C@@H](C)c1ccc(C2CCN(c3ncc(C(=O)NCc4ccccc4)cn3)CC2)cc1 [Example 18.92]
0.8 | CC(=O)N[C@@H](C)c1ccc(C2CCN(c3ncc(C(=O)N(C)Cc4ccccc4)cn3)CC2)cc1 [Example 18.93]
0.19 | CC(=O)N[C@@H](C)c1ccc(C2CCN(c3ncc(C(=O)Nc4ccccc4)cn3)CC2)cc1 [Example 18.95]
